Reference: article PMC5459956 (International Journal of Nanomedicine, 2017)

How the values were obtained:
[1] = system: ROS generation in MV-4–11 cells; assay: Reactive oxygen species assay; assay type: cell-based; settings: 4 h, Cu(DDC)2 200 µM, menadione 50 µM, versus cell-free condition
[2] = system: healthy bronchial epithelial cells; settings: in vitro; cited from earlier work
[3] = cited from earlier work
MV-4–11 cells = assay: MV-4–11 cytotoxicity assay; assay type: cell-based; settings: read-out: 72-h IC50, 72 h exposure, PrestoBlue

Row | Structure (SMILES) | ROS generation [1] | effect in healthy bronchial epithelial cells [2] | solubility (slightly soluble precipitate) [3] | IC50 (MV-4–11 cells)
1 | CC1=CC(=O)c2ccccc2C1=O [Menadione, menadione] | ROS formation in the cells was evident |  |  | 
2 | CCN(CC)C(=S)[S-].CCN(CC)C(=S)[S-].[Cu+2] [Cu(DDC)2, Copper diethyldithiocarbamate] |  | did not have any effect | < 100 µg/mL | ~110 nM
